# Results as given in ChEMBL document CHEMBL4229332, “Novel multi-target azinesulfonamides of cyclic amine derivatives as potential antipsychotics with pro-social and pro-cognitive effects” (Eur J Med Chem, 2018).
# Assays:
# [1] = target: T1, 5-hydroxytryptamine receptor 1A (Homo sapiens, UniProt P08908); assay: biochemical
# T1 sequence (P08908 whole entry): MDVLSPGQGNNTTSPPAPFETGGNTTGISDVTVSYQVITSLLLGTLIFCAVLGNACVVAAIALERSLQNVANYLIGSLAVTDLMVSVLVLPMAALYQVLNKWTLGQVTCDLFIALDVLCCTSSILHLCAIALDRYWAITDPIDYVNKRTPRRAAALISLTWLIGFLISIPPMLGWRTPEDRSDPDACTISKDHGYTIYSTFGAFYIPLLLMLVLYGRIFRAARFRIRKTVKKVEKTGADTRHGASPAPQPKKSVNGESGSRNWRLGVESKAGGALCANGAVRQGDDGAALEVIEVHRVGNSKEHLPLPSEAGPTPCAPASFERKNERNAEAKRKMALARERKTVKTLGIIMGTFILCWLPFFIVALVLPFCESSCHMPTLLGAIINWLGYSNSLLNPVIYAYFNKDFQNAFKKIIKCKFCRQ
# Description: Displacement of [3H]-8-OH-DPAT from human 5-HT1AR expressed in HEK293 cell membranes after 1 hr by microbeta counting method
# [2] = target: 5-hydroxytryptamine receptor 6 (Homo sapiens, UniProt P50406); assay: biochemical
# 5-hydroxytryptamine receptor 6, sequence (P50406 whole entry): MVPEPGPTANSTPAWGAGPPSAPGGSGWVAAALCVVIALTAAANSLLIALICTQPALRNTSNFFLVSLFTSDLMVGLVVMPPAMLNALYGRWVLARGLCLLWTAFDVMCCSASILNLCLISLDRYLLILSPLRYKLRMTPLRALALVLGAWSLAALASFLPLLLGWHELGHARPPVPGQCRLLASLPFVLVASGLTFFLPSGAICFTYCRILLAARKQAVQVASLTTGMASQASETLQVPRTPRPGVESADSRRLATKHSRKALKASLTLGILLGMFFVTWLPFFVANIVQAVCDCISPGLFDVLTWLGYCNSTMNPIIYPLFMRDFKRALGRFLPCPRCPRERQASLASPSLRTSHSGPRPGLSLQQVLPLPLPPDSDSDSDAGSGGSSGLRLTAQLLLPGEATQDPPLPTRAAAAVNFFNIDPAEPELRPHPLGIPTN
# Description: Displacement of [3H]-LSD from human 5-HT6R expressed in HEK293 cell membranes after 1 hr at 37 degC by microbeta counting method
# [3] = target: 5-hydroxytryptamine receptor 7 (Homo sapiens, UniProt P34969); assay: biochemical
# 5-hydroxytryptamine receptor 7, sequence (P34969 whole entry): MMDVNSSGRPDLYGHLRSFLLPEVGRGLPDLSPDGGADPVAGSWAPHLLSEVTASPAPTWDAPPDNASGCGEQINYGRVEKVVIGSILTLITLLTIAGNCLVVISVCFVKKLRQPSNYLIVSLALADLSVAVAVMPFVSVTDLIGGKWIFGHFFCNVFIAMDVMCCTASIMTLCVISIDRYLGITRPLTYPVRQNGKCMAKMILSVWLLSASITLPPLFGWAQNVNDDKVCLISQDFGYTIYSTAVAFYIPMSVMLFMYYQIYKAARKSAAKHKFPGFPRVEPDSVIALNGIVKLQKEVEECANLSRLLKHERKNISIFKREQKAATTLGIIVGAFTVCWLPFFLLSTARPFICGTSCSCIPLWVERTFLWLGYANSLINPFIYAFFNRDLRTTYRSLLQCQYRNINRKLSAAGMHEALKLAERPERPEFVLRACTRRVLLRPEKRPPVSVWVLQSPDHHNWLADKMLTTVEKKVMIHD
# Description: Displacement of [3H]-5-CT from human 5-HT7R expressed in HEK293 cell membranes after 1 hr at 37 degC by microbeta counting method
# [4] = target: 5-hydroxytryptamine receptor 2A (Homo sapiens, UniProt P28223); assay: biochemical; format: cell-based, CHO-K1
# 5-hydroxytryptamine receptor 2A, sequence (P28223 whole entry): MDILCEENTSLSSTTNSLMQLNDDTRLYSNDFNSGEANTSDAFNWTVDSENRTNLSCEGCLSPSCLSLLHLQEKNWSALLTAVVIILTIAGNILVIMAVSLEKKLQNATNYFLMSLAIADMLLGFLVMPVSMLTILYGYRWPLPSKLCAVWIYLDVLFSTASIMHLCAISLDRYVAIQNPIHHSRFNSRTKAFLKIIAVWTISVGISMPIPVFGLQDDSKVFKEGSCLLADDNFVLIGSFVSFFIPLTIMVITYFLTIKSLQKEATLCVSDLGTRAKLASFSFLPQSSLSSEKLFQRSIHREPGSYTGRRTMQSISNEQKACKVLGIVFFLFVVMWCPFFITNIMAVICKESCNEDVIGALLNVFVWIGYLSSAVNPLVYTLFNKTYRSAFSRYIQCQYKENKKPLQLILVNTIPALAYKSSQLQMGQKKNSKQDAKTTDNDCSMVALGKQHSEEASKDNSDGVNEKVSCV
# [5] = Drug level in Wistar rat brain at 3 mg/kg, ip measured after 15 mins by LC-MS/MS analysis; format: ADME, organism-based; conditions: read-out: Drug uptake
# [6] = Drug level in Wistar rat brain at 3 mg/kg, ip measured after 60 mins by LC-MS/MS analysis; format: ADME, organism-based; conditions: read-out: Drug uptake
# [7] = Drug level in Wistar rat plasma at 3 mg/kg, ip measured after 30 mins by LC-MS/MS analysis; format: ADME, organism-based
# [8] = Drug level in Wistar rat plasma at 3 mg/kg, ip measured after 60 mins by LC-MS/MS analysis; format: ADME, organism-based
# [9] = Ratio of drug level in brain to plasma in Wistar rat at 3 mg/kg, ip measured after 15 mins by LC-MS/MS analysis; format: ADME, organism-based; conditions: read-out: BPR
# [10] = Drug level in Wistar rat plasma at 3 mg/kg, ip measured after 15 mins by LC-MS/MS analysis; format: ADME, organism-based
# [11] = Ratio of drug level in brain to plasma in Wistar rat at 3 mg/kg, ip measured after 30 mins by LC-MS/MS analysis; format: ADME, organism-based; conditions: read-out: BPR
# [12] = Drug level in Wistar rat brain at 3 mg/kg, ip measured after 30 mins by LC-MS/MS analysis; format: ADME, organism-based; conditions: read-out: Drug uptake
# [13] = Ratio of drug level in brain to plasma in Wistar rat at 3 mg/kg, ip measured after 60 mins by LC-MS/MS analysis; format: ADME, organism-based; conditions: read-out: BPR
SMILES,Ki [1] [nM],Ki [2] [nM],Ki [3] [nM],Ki [4] [nM],also measured
O=S(=O)(c1cccc2ncccc12)N1CCCC[C@@H]1CCN1CCN(c2nsc3ccccc23)CC1,28,949,52,29,–
O=S(=O)(c1cccc2cnccc12)N1CCC[C@H]1CCN1CCN(c2nsc3ccccc23)CC1,37,360,12,18,concentration at 0.25 h [5]: 90.1 nM; concentration at 1 h [6]: 19.7 nM; concentration at 0.5 h [7]: 417 nM; concentration at 1 h [8]: 117 nM; Kp at 0.25 h [9]: 0.15; concentration at 0.25 h [10]: 647 nM; Kp at 0.5 h [11]: 0.19; concentration at 0.5 h [12]: 67.1 nM; Kp at 1 h [13]: 0.17
O=S(=O)(c1cccc2cnccc12)N1CCC[C@H]1CCN1CCN(c2noc3ccccc23)CC1,86,92,10,41,–
O=c1[nH]c2c(N3CCN(CC[C@H]4CCCN4S(=O)(=O)c4cncc5ccccc45)CC3)cccc2o1,36,1810,1340,1970,–
O=S(=O)(c1cccc2ncccc12)N1CCCCC[C@H]1CCN1CCN(c2cccc3sccc23)CC1,12,176,19,51,–
O=S(=O)(c1cccc2ncccc12)N1CCCCC[C@H]1CCN1CCN(c2nsc3ccccc23)CC1,48,457,17,30,–
O=S(=O)(c1cccc2cnccc12)N1CCC[C@@H]1CCN1CCN(c2cccc3sccc23)CC1,13,9,3,19,–
O=S(=O)(c1cncc2ccccc12)N1CCC[C@@H]1CCN1CC=C(c2c[nH]c3ccc(Cl)cc23)CC1,147,23,8,1900,–
O=S(=O)(c1cncc2ccccc12)N1CCC[C@H]1CCN1CCN(c2noc3ccccc23)CC1,96,497,6,33,–
O=S(=O)(c1cccc2ncccc12)N1CCC[C@H]1CCN1CCC(c2noc3cc(F)ccc23)CC1,147,169,12,12,–
O=S(=O)(c1cccc2ncccc12)N1CCCC[C@@H]1CCN1CCN(c2cccc3sccc23)CC1,15,337,22,35,–
O=S(=O)(c1cncc2ccccc12)N1CCCCC[C@H]1CCN1CCN(c2cccc3sccc23)CC1,8,190,24,29,–
O=S(=O)(c1cncc2ccccc12)N1CCC[C@H]1CCN1CCN(c2cccc3c2OCCO3)CC1,6,1480,142,91,–
O=S(=O)(c1cccc2ncccc12)N1CCC[C@H]1CCN1CCN(c2cccc3[nH]ccc23)CC1,14,2310,165,244,–
O=S(=O)(c1cccc2ncccc12)N1CCC[C@@H]1CCN1CCN(c2cccc3[nH]ccc23)CC1,5,641,14,451,–
O=S(=O)(c1cccc2ncccc12)N1CCC[C@@H]1CCN1CCC(c2noc3cc(F)ccc23)CC1,120,45,12,5,–
O=S(=O)(c1cccc2cnccc12)N1CCC[C@@H]1CCN1CCN(c2nsc3ccccc23)CC1,16,40,1,15,concentration at 0.25 h [5]: 114 nM; concentration at 1 h [6]: 35.5 nM; concentration at 0.5 h [7]: 389 nM; concentration at 1 h [8]: 79.2 nM; Kp at 0.25 h [9]: 0.28; concentration at 0.25 h [10]: 450 nM; Kp at 0.5 h [11]: 0.21; concentration at 0.5 h [12]: 81.9 nM; Kp at 1 h [13]: 0.45
O=S(=O)(c1cccc2ncccc12)N1CCC[C@@H]1CCN1CC=C(c2c[nH]c3ccc(Cl)cc23)CC1,91,18,12,1150,–
O=S(=O)(c1cccc2cnccc12)N1CCC[C@H]1CCN1CCN(c2cccc3sccc23)CC1,10,72,23,9,–
O=S(=O)(c1cccc2ncccc12)N1CC[C@@H]1CCN1CCN(c2nsc3ccccc23)CC1,54,344,57,30,–
O=S(=O)(c1cccc2ncccc12)N1CCC[C@H]1CCN1CCN(c2cccc3c2OCCO3)CC1,6,2530,349,110,–

SMILES,Ki [1] [nM],Ki [2] [nM],Ki [3] [nM],Ki [4] [nM],also measured
O=S(=O)(c1cncc2ccccc12)N1CC[C@@H]1CCN1CCN(c2nsc3ccccc23)CC1,56,348,51,24,–
O=S(=O)(c1ccnc2ccccc12)N1CCCCC[C@H]1CCN1CCN(c2nsc3ccccc23)CC1,50,623,19,26,–
O=S(=O)(c1cccc2ncccc12)N1CCC[C@@H]1CCN1CCN(c2cccc3c2OCCO3)CC1,5,996,66,296,–
O=S(=O)(c1cccc2ncccc12)N1CCC[C@H]1CCN1CCN(c2noc3ccccc23)CC1,179,291,7,49,–
O=S(=O)(c1cccc2ncccc12)N1CCC[C@H]1CCN1CCN(c2cccc3sccc23)CC1,13,82,19,36,–
O=S(=O)(c1cccc2ncccc12)N1CCC[C@@H]1CCN1CCN(c2nsc3ccccc23)CC1,24,38,–,21,–
O=c1[nH]c2c(N3CCN(CC[C@@H]4CCCN4S(=O)(=O)c4cncc5ccccc45)CC3)cccc2o1,27,2990,672,2040,–
O=S(=O)(c1cccc2ncccc12)N1CCC[C@@H]1CCN1CCN(c2cccc3sccc23)CC1,15,13,1,56,–
O=S(=O)(c1cccc2ncccc12)N1CCC[C@H]1CCN1CC=C(c2c[nH]c3ccc(Cl)cc23)CC1,146,77,65,1400,–
O=S(=O)(c1cncc2ccccc12)N1CCCC[C@@H]1CCN1CCN(c2cccc3sccc23)CC1,12,221,32,64,–
O=S(=O)(c1cncc2ccccc12)N1CCC[C@H]1CCN1CCN(c2cccc3[nH]ccc23)CC1,8,2060,75,82,–
O=S(=O)(c1cncc2ccccc12)N1CC[C@@H]1CCN1CCN(c2cccc3sccc23)CC1,16,104,31,16,–
O=S(=O)(c1cncc2ccccc12)N1CCC[C@H]1CCN1CC=C(c2c[nH]c3ccc(Cl)cc23)CC1,66,60,97,238,–
O=S(=O)(c1cncc2ccccc12)N1CCC[C@@H]1CCN1CCN(c2cccc3[nH]ccc23)CC1,6,766,4,76,–
O=S(=O)(c1cccc2ncccc12)N1CCC[C@H]1CCN1CCN(c2nsc3ccccc23)CC1,25,311,–,16,–
O=S(=O)(c1cccc2ncccc12)N1CC[C@@H]1CCN1CCN(c2cccc3sccc23)CC1,9,130,45,7,–
O=S(=O)(c1ccnc2ccccc12)N1CCCC[C@@H]1CCN1CCN(c2nsc3ccccc23)CC1,24,1260,69,35,–
O=S(=O)(c1cncc2ccccc12)N1CCC[C@@H]1CCN1CCN(c2cccc3c2OCCO3)CC1,7,1260,52,390,–
O=S(=O)(c1cncc2ccccc12)N1CCC[C@H]1CCN1CCC(c2noc3cc(F)ccc23)CC1,111,137,0.4,6,–
O=c1[nH]c2c(N3CCN(CC[C@@H]4CCCN4S(=O)(=O)c4cccc5ncccc45)CC3)cccc2o1,23,3910,1120,2450,–
